# Patent publication US6656509B1, “Combination of selenium-containing compounds with cytostatics” (Biosyn Arzneimittel GmbH, priority 1998, dated 2003)
# Key:
# Assay type in all cases: cell-based, human
# [1] = test system: pancreatic cancer xenograft PAXF 736; test: clonogenic assay, single agents and combination studies
# Method: (§1) The cell mixture was passed through sieves of 200 μm and 50 μm mesh size and washed thereafter twice with PBS. The percentage of viable cells was determined in a Neubauer counting chamber using trypan blue exclusion.
# (§2) 8×10^3 to 1,6×10^4 cells were added to 0.2 ml of the same culture medium together with 0.4% agar and placed in already coated 24-multiwell dishes. Test substances were applied by continuous exposure (drug overlay) in 0.2 ml medium. Every dish included six control wells containing the vehicle- and drug-treated groups in triplicate at six concentrations.
# (§3) Cultures were incubated at 37° and 7% CO2 in a humidified atmosphere for 5 to 15 days (depending on the doubling time of the tumor stem cells) and monitored for colony growth using an inverted microscope. Within this period, in vitro tumor growth led to the formation of colonies with a diameter of ≧50 μm. At the time of maximum colony formation counts were performed with an automatic image analysis system (OMNICOM Fas IV, Biosys GmbH). […] Drug effects were expressed in terms of the percentage of surviving cells, obtained by comparison of the mean number of colonies in the treated plates with the mean colony count of the untreated controls (test-versus-control-group value, T/C=colony countTreated Group*100/colony countControl Group).
# (§4) Coefficient of variation in the control group ≦50%. IC50 and IC70 values were determined by plotting compound concentration versus cell survival rate. Mean IC50 and IC70 values were calculated according to the formula: [formula]
# (§5) with x=specific tumor xenograft and n=total number of tumor xenografts studied. If an IC50 or IC70 value could not be determined within the examined dose range, the lowest or highest concentration studied was used for the calculation.
# (§6) Each experiment included the chemotherapeutic agents in 6 concentrations, selenium in 2 concentrations (3 and 30 μM), and the combination of all doses with selenium at 3 and 30 μM. All compounds and combinations were studied in triplicates. […] Each experiment was performed twice.
# (§7) T/Cexpectd(A+B)=T/C(A)×T/C(B)/100
# (§8) For a zero-interactive drug combination (additivity of drug effects) T/Cexpected(A+B)[…]T/Cobserved(A+B). A drug combination is synergistic if T/Cobserved(A+B) is statistically significant[…]T/Cexpected(A+B). Statistical significance was determined by the T-test.
# [2] = test system: pancreatic cancer xenograft PAXF 546; test: as above
# Method: as §1, §2, §3, §4, §5, §6, §7, §8
# [3] = test system: PRXF PC3M; test: clonogenic assay (colony forming assay); details: PRXF PC3M/3; X189/AM
# Method: (§9) Solid human tumor xenografts growing subcutaneously in serial passages in thymus-aplastic nude mice (NMRI nu/nu strain, obtained from our own breeding facility) were removed under sterile conditions, the cells were mechanically disaggregated and subsequently incubated with an enzyme cocktail consisting of collagenase (1.2-1.8 U/ml, Worthington), DNAse (375 U/ml, Boehringer Mannheim) und hyaluronidase (29 U/ml, Boehringer Mannheim) in RPMI 1640 at 37° C. for 30 minutes. The cell mixture was passed through sieves of 200 μm and 50 μm mesh size and washed thereafter twice with PBS. The percentage of viable cells was determined in a Neubauer counting chamber using trypan blue exclusion.
# (§10) The clonogenic assay was performed according to a modified two-layer soft agar assay described by Hamburger and Salmon (Hamburger and Salmon, Science, 197: 461463, 1977). The bottom layer consisted of 0.2 ml Iscoves' Modified Dulbecco's Medium with 20% fetal calf serum and 0.75% agar. 8×10^3 to 1,6×10^4 cells were added to 0.2 ml of the same culture medium together with 0.4% agar and placed in already coated 24-multiwell dishes. Test substances were applied by continuous exposure (drug overlay) in 0.2 ml medium. Every dish included six control wells containing the vehicle- and drug-treated groups in triplicate at six concentrations.
# (§11) Cultures were incubated at 37° and 7% CO2 in a humidified atmosphere for 5 to 15 days (depending on the doubling time of the tumor stem cells) and monitored for colony growth using an inverted microscope. Within this period, in vitro tumor growth led to the formation of colonies with a diameter of ≧50 μm. At the time of maximum colony formation counts were performed with an automatic image analysis system (OMNICOM Fas IV, Biosys GmbH). 24 hours prior to this assay, vital colonies were stained with a sterile aqueous solution of 2-(4-iodophenyl)-3-(4-nitrophenyl)-5-phenyltetrazolium chloride (1 mg/ml, 100 μI/well). Drug effects were expressed in terms of the percentage of surviving cells, obtained by comparison of the mean number of colonies in the treated plates with the mean colony count of the untreated controls (test-versus-control-group value, T/C=colony countTreated Group*100/colony countControl Group).
# as §4, §5
# [4] = test system: RXF 393; test: clonogenic assay (colony forming assay); details: RXF 393/9; X194AM
# Method: as §9, §10, §11, §4, §5
# [5] = test system: MAXF MCF7X; test: clonogenic assay (colony forming assay); details: MAXF MCF7X/28; X218AM
# Method: as §9, §10, §11, §4, §5
structure (smiles),measurement,setting,value
O=[Se]([O-])[O-].[Na+].[Na+] [sodium selenite],Sodium selenite T/C in %,"[1]; 3.0 μM alone, X265, X290",81 ± 12%
same,Sodium selenite T/C in %,"[1]; 30.0 μM alone, X265",43 ± 8%
same,Sodium selenite T/C in %,"[1]; 30.0 μM alone, X290",5 ± 2%
same,Sodium selenite T/C in %,"[1]; 30.0 μM alone, X290, listed as selenium",5%
same,Test/control (%) at drug concentration [μM] 1.,"[1]; PAXF 736/17, X184AM",88%
same,Test/control (%) at drug concentration [μM] 10.,"[1]; PAXF 736/17, X184AM",90%
same,Test/control (%) at drug concentration [μM] 100.,"[1]; PAXF 736/17, X184AM",4%
same,Test/control (%) at drug concentration [μM] .001,"[1]; PAXF 736/17, X184AM",87%
same,Test/control (%) at drug concentration [μM] .01,"[1]; PAXF 736/17, X184AM",77%
same,Test/control (%) at drug concentration [μM] .1,"[1]; PAXF 736/17, X184AM",94%
same,Test/control (%) class at drug concentration [μM] 1.,"[1]; PAXF 736/17, X184AM",− (− (T/C ≧ 50%))
same,Test/control (%) class at drug concentration [μM] 10.,"[1]; PAXF 736/17, X184AM",− (− (T/C ≧ 50%))
same,Test/control (%) class at drug concentration [μM] 100.,"[1]; PAXF 736/17, X184AM",+++ (+++ (T/C ≦ 10%))
same,Test/control (%) class at drug concentration [μM] .001,"[1]; PAXF 736/17, X184AM",− (− (T/C ≧ 50%))
same,Test/control (%) class at drug concentration [μM] .01,"[1]; PAXF 736/17, X184AM",− (− (T/C ≧ 50%))
same,Test/control (%) class at drug concentration [μM] .1,"[1]; PAXF 736/17, X184AM",− (− (T/C ≧ 50%))
same,Sodium selenite T/C in %,"[2]; 3.0 μM alone, X261, X295",91 ± 8%
same,Sodium selenite T/C in %,"[2]; 30.0 μM alone, X261",80 ± 13%
same,Sodium selenite T/C in %,"[2]; 30.0 μM alone, X295",49 ± 6%
same,Test/control (%) at drug concentration [μM] 1.,"[2]; PAXF 546/2, *(2)",104%
same,Test/control (%) at drug concentration [μM] 10.,"[2]; PAXF 546/2, *(2)",88%
same,Test/control (%) at drug concentration [μM] 100.,"[2]; PAXF 546/2, *(2)",2%
same,Test/control (%) at drug concentration [μM] .001,"[2]; PAXF 546/2, *(2)",82%
same,Test/control (%) at drug concentration [μM] .01,"[2]; PAXF 546/2, *(2)",112%
same,Test/control (%) at drug concentration [μM] .1,"[2]; PAXF 546/2, *(2)",100%
same,Test/control (%) class at drug concentration [μM] 1.,"[2]; PAXF 546/2, *(2)",− (− (T/C ≧ 50%))
same,Test/control (%) class at drug concentration [μM] 10.,"[2]; PAXF 546/2, *(2)",− (− (T/C ≧ 50%))
same,Test/control (%) class at drug concentration [μM] 100.,"[2]; PAXF 546/2, *(2)",+++ (+++ (T/C ≦ 10%))
same,Test/control (%) class at drug concentration [μM] .001,"[2]; PAXF 546/2, *(2)",− (− (T/C ≧ 50%))
same,Test/control (%) class at drug concentration [μM] .01,"[2]; PAXF 546/2, *(2)",− (− (T/C ≧ 50%))
same,Test/control (%) class at drug concentration [μM] .1,"[2]; PAXF 546/2, *(2)",− (− (T/C ≧ 50%))
same,Test/control (%) at drug concentration [μM] 1.,[3],85%
same,Test/control (%) at drug concentration [μM] 10.,[3],38%
same,Test/control (%) at drug concentration [μM] 100.,[3],1%
same,Test/control (%) at drug concentration [μM] .001,[3],91%
same,Test/control (%) at drug concentration [μM] .01,[3],91%
same,Test/control (%) at drug concentration [μM] .1,[3],89%
same,Test/control (%) class at drug concentration [μM] 1.,[3],− (− (T/C ≧ 50%))
same,Test/control (%) class at drug concentration [μM] 10.,[3],+ (+ (30% ≦ T/C < 50%))
same,Test/control (%) class at drug concentration [μM] 100.,[3],+++ (+++ (T/C ≦ 10%))
same,Test/control (%) class at drug concentration [μM] .001,[3],− (− (T/C ≧ 50%))
same,Test/control (%) class at drug concentration [μM] .01,[3],− (− (T/C ≧ 50%))
same,Test/control (%) class at drug concentration [μM] .1,[3],− (− (T/C ≧ 50%))
same,Test/control (%) at drug concentration [μM] 1.,[4],31%
same,Test/control (%) at drug concentration [μM] 10.,[4],32%
same,Test/control (%) at drug concentration [μM] 100.,[4],10%
same,Test/control (%) at drug concentration [μM] .001,[4],62%
same,Test/control (%) at drug concentration [μM] .01,[4],45%
same,Test/control (%) at drug concentration [μM] .1,[4],31%
same,Test/control (%) class at drug concentration [μM] 1.,[4],+ (+ (30% ≦ T/C < 50%))
same,Test/control (%) class at drug concentration [μM] 10.,[4],+ (+ (30% ≦ T/C < 50%))
same,Test/control (%) class at drug concentration [μM] 100.,[4],+++ (+++ (T/C ≦ 10%))
same,Test/control (%) class at drug concentration [μM] .001,[4],− (− (T/C ≧ 50%))
same,Test/control (%) class at drug concentration [μM] .01,[4],− (− (T/C ≧ 50%))
same,Test/control (%) class at drug concentration [μM] .1,[4],+ (+ (30% ≦ T/C < 50%))
same,Test/control (%) at drug concentration [μM] 1.,[5],78%
same,Test/control (%) at drug concentration [μM] 10.,[5],97%
same,Test/control (%) at drug concentration [μM] 100.,[5],0%
same,Test/control (%) at drug concentration [μM] .001,[5],93%
same,Test/control (%) at drug concentration [μM] .01,[5],85%
same,Test/control (%) at drug concentration [μM] .1,[5],90%
same,Test/control (%) class at drug concentration [μM] 1.,[5],− (− (T/C ≧ 50%))
same,Test/control (%) class at drug concentration [μM] 10.,[5],− (− (T/C ≧ 50%))
same,Test/control (%) class at drug concentration [μM] 100.,[5],+++ (+++ (T/C ≦ 10%))
same,Test/control (%) class at drug concentration [μM] .001,[5],− (− (T/C ≧ 50%))
same,Test/control (%) class at drug concentration [μM] .01,[5],− (− (T/C ≧ 50%))
same,Test/control (%) class at drug concentration [μM] .1,[5],− (− (T/C ≧ 50%))
